Reference: ChEMBL document CHEMBL5375978, “Harnessing the Reactivity of Duclauxin toward Obtaining hPTP1B1-400 Inhibitors” (J Med Chem, 2023)
The source made the active and inactive calls. No cut-off for these calls is given here.

Key:
[1] = target: T1, Tyrosine-protein phosphatase non-receptor type 1 (Homo sapiens) (UniProt P18031); assay: Inhibition of wild type N-terminal 6 his tagged human PTP1B (1 to 400 residues) expressed in Escherichia coli (Rosetta, DE3) using p-NPP as substrate at 100 uM preincubated for 10 mins followed by substrate addition and measured after 20 mins by absorbance based analysis; settings: time 30.0 min
T1 sequence (whole entry): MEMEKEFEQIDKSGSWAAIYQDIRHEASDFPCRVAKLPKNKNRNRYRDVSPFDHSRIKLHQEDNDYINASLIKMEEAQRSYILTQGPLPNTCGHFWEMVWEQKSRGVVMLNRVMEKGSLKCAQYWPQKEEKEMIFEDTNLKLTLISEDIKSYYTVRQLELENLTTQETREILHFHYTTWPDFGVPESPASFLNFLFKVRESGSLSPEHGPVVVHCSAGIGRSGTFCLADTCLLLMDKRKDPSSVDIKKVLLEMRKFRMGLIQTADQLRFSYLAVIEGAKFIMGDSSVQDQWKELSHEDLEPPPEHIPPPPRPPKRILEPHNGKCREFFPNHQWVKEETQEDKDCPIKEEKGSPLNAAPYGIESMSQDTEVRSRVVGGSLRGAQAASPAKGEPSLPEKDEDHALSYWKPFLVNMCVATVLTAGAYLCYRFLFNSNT

[2] = Acute toxicity in Swiss Webster mouse assessed as sedation at 10 to 500 mg/kg, po and measured for 2 hrs; format: organism-based; settings: in vivo, dose 10-500 mg/kg
[3] = Acute toxicity in Swiss Webster mouse assessed as ataxia at 10 to 500 mg/kg, po and measured for 2 hrs; format: organism-based; settings: in vivo, dose 10-500 mg/kg
[4] = Acute toxicity in Swiss Webster mouse assessed as animal death at 10 to 500 mg/kg, po and measured after 14 days; format: organism-based; settings: in vivo, 336 h, dose 10-500 mg/kg, time 14 day
[5] = Acute toxicity in Swiss Webster mouse assessed as hyperactivity at 10 to 500 mg/kg, po and measured for 2 hrs; format: organism-based; settings: in vivo, dose 10-500 mg/kg
[6] = Acute toxicity in Swiss Webster mouse assessed as effect on body weight loss at 10 to 500 mg/kg, po and measured after 14 days; format: organism-based; settings: in vivo, 336 h, dose 10-500 mg/kg, time 14 day
[7] = target: T2, Tyrosine-protein phosphatase non-receptor type 1 (Homo sapiens, UniProt P18031); assay: Inhibition of wild type N-terminal 6 his tagged human PTP1B (1 to 400 residues) expressed in Escherichia coli (Rosetta, DE3) using p-NPP as substrate preincubated for 10 mins followed by substrate addition and measured after 20 mins by absorbance based analysis
T2 sequence (P18031 whole entry): T1 sequence (whole entry)

[8] = target: T1, Tyrosine-protein phosphatase non-receptor type 1 (Homo sapiens); assay: Binding affinity to wild type N-terminal 6 his tagged human PTP1B (1 to 400 residues) expressed in Escherichia coli (Rosetta, DE3) assessed as affinity constant by fluorescence based analysis
[9] = Acute toxicity in Swiss Webster mouse assessed as lethal dose; settings: in vivo
[10] = Acute toxicity in Swiss Webster mouse assessed as change in heart rate at 10 to 500 mg/kg, po and measured for 2 hrs; format: organism-based; settings: in vivo, dose 10-500 mg/kg
[11] = Acute toxicity in Swiss Webster mouse assessed as animal death at 10 to 500 mg/kg, po and measured for 2 hrs; format: organism-based; settings: in vivo, dose 10-500 mg/kg
[12] = Acute toxicity in Swiss Webster mouse assessed as loss of motor activity at 10 to 500 mg/kg, po and measured for 2 hrs; format: organism-based; settings: in vivo, dose 10-500 mg/kg
[13] = Acute toxicity in Swiss Webster mouse assessed as macroscopic damage in internal organs at 10 to 500 mg/kg, po and measured after 14 days; format: organism-based; settings: in vivo, 336 h, dose 10-500 mg/kg, time 14 day
[14] = Acute toxicity in Swiss Webster mouse assessed as sedation at 30 to 300 mg/kg, po and measured for 2 hrs; format: organism-based; settings: in vivo, dose 30-300 mg/kg
[15] = Acute toxicity in Swiss Webster mouse assessed as loss of motor activity at 30 to 300 mg/kg, po and measured for 2 hrs; format: organism-based; settings: in vivo, dose 30-300 mg/kg
Mus musculus [16] = assay: Hypoglycemic activity in Swiss Webster mouse assessed as reduction in blood glucose level at 3 to 30 mg/kg preincubated for 30 mins followed by insulin dose and measured after 60 to 120 mins by insulin tolerance test; format: functional, organism-based; settings: dose 3-30 mg/kg, time 90-150 min
[17] = Acute toxicity in Swiss Webster mouse assessed as effect on body weight loss at 30 to 300 mg/kg, po and measured after 14 days; format: organism-based; settings: in vivo, 336 h, dose 30-300 mg/kg, time 14 day
[18] = Acute toxicity in Swiss Webster mouse assessed as macroscopic damage in internal organs at 30 to 300 mg/kg, po and measured after 14 days; format: organism-based; settings: in vivo, 336 h, dose 30-300 mg/kg, time 14 day
Mus musculus [19] = organism: Mus musculus; assay: Hypoglycemic activity in Swiss Webster mouse assessed as reduction in blood glucose level preincubated for 30 mins followed by insulin dose and measured at upto 120 mins by insulin tolerance test; format: functional, organism-based; settings: time <= 150.0 min
[20] = Acute toxicity in Swiss Webster mouse assessed as animal death at 30 to 300 mg/kg, po and measured for 2 hrs; format: organism-based; settings: in vivo, dose 30-300 mg/kg
[21] = Acute toxicity in Swiss Webster mouse assessed as ataxia at 30 to 300 mg/kg, po and measured for 2 hrs; format: organism-based; settings: in vivo, dose 30-300 mg/kg
[22] = Acute toxicity in Swiss Webster mouse assessed as change in heart rate at 30 to 300 mg/kg, po and measured for 2 hrs; format: organism-based; settings: in vivo, dose 30-300 mg/kg
[23] = Acute toxicity in Swiss Webster mouse assessed as animal death at 30 to 300 mg/kg, po and measured after 14 days; format: organism-based; settings: in vivo, 336 h, dose 30-300 mg/kg, time 14 day
[24] = Acute toxicity in Swiss Webster mouse assessed as hyperactivity at 30 to 300 mg/kg, po and measured for 2 hrs; format: organism-based; settings: in vivo, dose 30-300 mg/kg

With `CO[C@@]12c3c(C)cc(O)c4c(=O)n([C@H](C(=O)O)C(C)C)cc(c34)C(=O)[C@@H]1[C@]13COC(=O)c4c(O)cc(C)c(c41)C(=O)[C@H]2[C@@H]3OC(C)=O` the inhibition [1] was “inactive”.

For `CO[C@@]12c3c(C)cc(O)c4c(=O)n(-c5ccccc5)cc(c34)C(=O)[C@@H]1[C@]13COC(=O)c4c(O)cc(C)c(c41)C(=O)[C@H]2[C@@H]3OC(C)=O`, the inhibition [1] was “inactive”.

In the case of `CO[C@@]12c3c(C)cc(O)c4c(=O)occ(c34)C(=O)[C@@H]1[C@]13COC(=O)c4c(O)cc(C)c(c41)C(=O)[C@H]2[C@@H]3OC(C)=O`, the Activity [2] is reported as “Non-Toxic”, the Activity [3] is reported as “Non-Toxic” and the Activity [4] is reported as “Non-Toxic”. The Activity [5] was “Non-Toxic”, the Activity [6] was “Non-Toxic” and the IC50 [7] was 35.6 µM. The Ka [8] was 2 10^5/M, the LD50 [9] was 500 mg/kg and the Activity [10] was “Non-Toxic”. For the same compound, the Activity [11] was “Non-Toxic”, the Activity [12] was “Non-Toxic” and the Activity [13] was “Non-Toxic”.

For `CC(=O)O[C@H]1[C@@H]2C(=O)c3c(C)cc(O)c4c3[C@@]1(COC4=O)C1=C2c2c(C)cc(O)c3c(=O)n(-c4ccc([N+](=O)[O-])cc4)cc(c23)C1=O`, the Activity [14] was “Non-Toxic”, the Activity [15] was “Non-Toxic” and the Activity (Mus musculus [16]) was “Active”. The Activity [17] was “Non-Toxic”, the Activity [18] was “Non-Toxic” and the Activity (Mus musculus [19]) was “Dose-Dependent Effect”. For the same compound, the Activity [20] was “Non-Toxic”, the IC50 [7] was 3.1 µM and the Activity [21] was “Non-Toxic”. The Activity [22] was “Non-Toxic”, the Activity [23] was “Non-Toxic” and the Ka [8] was 2.9 10^5/M. The LD50 [9] was 300 mg/kg and the Activity [24] was “Non-Toxic”.

For `CO[C@@]12c3c(C)cc(O)c4c(=O)n(-c5ccc([N+](=O)[O-])cc5)cc(c34)C(=O)[C@@H]1[C@]13COC(=O)c4c(O)cc(C)c(c41)C(=O)[C@H]2[C@@H]3OC(C)=O`, the IC50 [7] was 7.7 µM and the Ka [8] was 2.1 10^5/M.

In the case of `CO[C@@]12c3c(C)cc(O)c4c(=O)n([C@@H](CC(=O)O)C(=O)O)cc(c34)C(=O)[C@@H]1[C@]13COC(=O)c4c(O)cc(C)c(c41)C(=O)[C@H]2[C@@H]3OC(C)=O`, the inhibition [1] is reported as “inactive”.
